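These data come from cells grown in 96-well plates and exposed to compound for 48 hours at five concentrations. GI50 is the concentration that inhibits growth by half.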 Calls of active or inactive are those of the source. Rule as the data show it: active = GI50 up to about 1.1 µM and inactive = higher.
Tests used:
Assay in all cases: NCI tumour cell line growth inhibition, 48 h
SNB-75 = test system: SNB-75
SF-295 = test system: SF-295
SF-539 = test system: SF-539
M14 = test system: M14
UACC-257 = test system: UACC-257
RXF 393 = test system: RXF 393
Hs-578T = test system: Hs-578T
T47D = test system: T47D
COLO 205 = test system: COLO 205
HCC 2998 = test system: HCC 2998
SR = test system: SR
MOLT-4 = test system: MOLT-4
DU-145 = test system: DU-145
NCI-H226 = test system: NCI-H226
MDA-N = test system: MDA-N
OVCAR-4 = test system: OVCAR-4
SW-620 = test system: SW-620
BT-549 = test system: BT-549
TK-10 = test system: TK-10
LOX IMVI = test system: LOX IMVI

| SMILES | GI50 (SNB-75) | GI50 (SF-295) | GI50 (SF-539) | GI50 (M14) | GI50 (UACC-257) | GI50 (RXF 393) | GI50 (Hs-578T) | GI50 (T47D) | GI50 (COLO 205) | GI50 (HCC 2998) | GI50 (SR) | GI50 (MOLT-4) | GI50 (DU-145) | GI50 (NCI-H226) | GI50 (MDA-N) | GI50 (OVCAR-4) | GI50 (SW-620) | GI50 (BT-549) | GI50 (TK-10) | GI50 (LOX IMVI) |
| --- | --- | --- | --- | --- | --- | --- | --- | --- | --- | --- | --- | --- | --- | --- | --- | --- | --- | --- | --- | --- |
| COc1cc2c(cc1O)C(c1cc(O)c(O)c(OC)c1)C(O)(C(=O)O)C(CO)C2O (stereo not given) | > 100 µM (inactive) | > 100 µM (inactive) | > 100 µM (inactive) | > 100 µM (inactive) | > 100 µM (inactive) | > 100 µM (inactive) | > 100 µM (inactive) | > 100 µM (inactive) | > 100 µM (inactive) | > 100 µM (inactive) | 66.4 µM (inactive) | 20.3 µM (inactive) | > 100 µM (inactive) | > 100 µM (inactive) | 16.6 µM (inactive) | > 100 µM (inactive) | 26 µM (inactive) | > 100 µM (inactive) | > 100 µM (inactive) | 17.9 µM (inactive) |
| CC(C)(C)OC(=O)CCCCCNC(=O)CCCCCNC(=O)CCC(CN(CC(=O)OCc1ccccc1)CC(=O)OCc1ccccc1)N(CC(=O)OCc1ccccc1)CC(=O)OCc1ccccc1 (stereo not given) | 20.2 µM (inactive) | > 100 µM (inactive) | > 100 µM (inactive) | > 100 µM (inactive) | > 100 µM (inactive) | > 100 µM (inactive) | > 100 µM (inactive) | > 100 µM (inactive) | > 100 µM (inactive) | > 100 µM (inactive) | 20.5 µM (inactive) | 20.1 µM (inactive) | > 100 µM (inactive) | > 100 µM (inactive) | > 100 µM (inactive) | > 100 µM (inactive) | > 100 µM (inactive) | > 100 µM (inactive) | > 100 µM (inactive) | > 100 µM (inactive) |
| Sc1nn2c(COc3cccc(OCc4nnc5sc(S)nn45)c3)nnc2s1 | > 100 µM (inactive) | > 100 µM (inactive) | 52.1 µM (inactive) | > 100 µM (inactive) | > 100 µM (inactive) | > 100 µM (inactive) | > 100 µM (inactive) | > 100 µM (inactive) | > 100 µM (inactive) | > 100 µM (inactive) | 17.4 µM (inactive) | 2.09 µM (inactive) | > 100 µM (inactive) | > 100 µM (inactive) | > 100 µM (inactive) | > 100 µM (inactive) | 37.5 µM (inactive) | > 100 µM (inactive) | > 100 µM (inactive) | 34.4 µM (inactive) |
| Cc1cc(N(CCC#N)CCC#N)ccc1C(=N/NC(=O)c1cc(Cl)ccc1O)/N=N/c1cccc([N+](=O)[O-])c1 | 27.5 µM (inactive) | 35.9 µM (inactive) | 44.5 µM (inactive) | 30.4 µM (inactive) | 31.2 µM (inactive) | 22.2 µM (inactive) | 38.9 µM (inactive) | 19.4 µM (inactive) | 16.7 µM (inactive) | 28.8 µM (inactive) | 12.6 µM (inactive) | 6.03 µM (inactive) | 27.2 µM (inactive) | 25.1 µM (inactive) | 37 µM (inactive) | 20.4 µM (inactive) | 39.3 µM (inactive) | 22.4 µM (inactive) | 27.2 µM (inactive) | 15.2 µM (inactive) |
| c1ccc2c(c1)nnn2C1CCCCO1 (stereo not given) | > 100 µM (inactive) | > 100 µM (inactive) | > 100 µM (inactive) | > 100 µM (inactive) | > 100 µM (inactive) | > 100 µM (inactive) | > 100 µM (inactive) | > 100 µM (inactive) | > 100 µM (inactive) | > 100 µM (inactive) | > 100 µM (inactive) | > 100 µM (inactive) | > 100 µM (inactive) | > 100 µM (inactive) | > 100 µM (inactive) | > 100 µM (inactive) | > 100 µM (inactive) | > 100 µM (inactive) | > 100 µM (inactive) | > 100 µM (inactive) |
| Cc1cc(C)nc(NS(=O)(=O)c2ccc(NC(=O)c3ccc4nc5ccccc5c(Nc5ccc(S(=O)(=O)Nc6nc(C)cc(C)n6)cc5)c4c3)cc2)n1 | > 100 µM (inactive) | > 100 µM (inactive) | 88.3 µM (inactive) | > 100 µM (inactive) | > 100 µM (inactive) | 34.9 µM (inactive) | 69.7 µM (inactive) | 46.7 µM (inactive) | > 100 µM (inactive) | 61.8 µM (inactive) | 39.7 µM (inactive) | 28.5 µM (inactive) | > 100 µM (inactive) | > 100 µM (inactive) | 91 µM (inactive) | 68.7 µM (inactive) | 41.4 µM (inactive) | 19 µM (inactive) | > 100 µM (inactive) | 19.1 µM (inactive) |
| O=C(c1ccc(Cl)cc1)C1OC12C(=O)Nc1ccccc12 (stereo not given) | 17.1 µM (inactive) | 18 µM (inactive) | 16 µM (inactive) | 6.18 µM (inactive) | 13.8 µM (inactive) | 15.4 µM (inactive) | 16.5 µM (inactive) | 16.3 µM (inactive) | 2.86 µM (inactive) | 19.9 µM (inactive) | 0.731 µM (active) | 0.569 µM (active) | 19.1 µM (inactive) | 20.3 µM (inactive) | 3.64 µM (inactive) | 19.1 µM (inactive) | 3.52 µM (inactive) | 6.93 µM (inactive) | 20.7 µM (inactive) | 1.45 µM (inactive) |
| Nn1c(SCC(=O)O)nc2ccccc2c1=O | > 100 µM (inactive) | > 100 µM (inactive) | > 100 µM (inactive) | > 100 µM (inactive) | > 100 µM (inactive) | > 100 µM (inactive) | > 100 µM (inactive) | > 100 µM (inactive) | > 100 µM (inactive) | > 100 µM (inactive) | > 100 µM (inactive) | > 100 µM (inactive) | > 100 µM (inactive) | > 100 µM (inactive) | > 100 µM (inactive) | > 100 µM (inactive) | > 100 µM (inactive) | > 100 µM (inactive) | > 100 µM (inactive) | > 100 µM (inactive) |
| COc1ccc(C2C3=C(COC3=O)OC(C)(C)Oc3cc4c(cc32)OCO4)cc1OC (stereo not given) | 13.2 µM (inactive) | 29 µM (inactive) | 29.1 µM (inactive) | 28.2 µM (inactive) | 39.4 µM (inactive) | 31.5 µM (inactive) | 31.6 µM (inactive) | 37.5 µM (inactive) | 20.9 µM (inactive) | 78 µM (inactive) | 29.2 µM (inactive) | 34.8 µM (inactive) | 42.1 µM (inactive) | > 78.7 µM (inactive) | 19.8 µM (inactive) | > 53.8 µM (inactive) | 33.3 µM (inactive) | 32.3 µM (inactive) | 50.1 µM (inactive) | 40.8 µM (inactive) |
| O=[N+]([O-])c1ccc2c(c1)C1=NN(c3ccccc3)C(c3ccccc3Br)C1CCC2 (stereo not given) | 42.8 µM (inactive) | 17.9 µM (inactive) | 19.1 µM (inactive) | 23.2 µM (inactive) | 19 µM (inactive) | 14.4 µM (inactive) | 48.1 µM (inactive) | 10.2 µM (inactive) | 33.7 µM (inactive) | 21.9 µM (inactive) | 4.05 µM (inactive) | 6.97 µM (inactive) | 16.3 µM (inactive) | 25.5 µM (inactive) | 17.3 µM (inactive) | 19.9 µM (inactive) | 9.12 µM (inactive) | 13.2 µM (inactive) | 38.2 µM (inactive) | 19.9 µM (inactive) |
